Consider six molecules from ChEMBL document CHEMBL1146042, “Identification of metabolites of the tryptase inhibitor CRA-9249: observation of a metabolite derived from an unexpected hydroxylation pathway” (Bioorg Med Chem Lett, 2006).

The target of one series is Tryptase (Homo sapiens, UniProt Q9BZJ3+Q15661+Q9NRR2). The experiment in a line: Inhibition of mast cell tryptase. The format is protein assay.
Series [1] is described as follows: Stability in mouse liver microsome after 3 hrs. The format is ADME. Particulars: liver microsomes, read-out: Stability. On the technique in general: Liver microsomes are vesicles of endoplasmic reticulum, rich in cytochrome P450 enzymes.
The nature of series [2]: Stability in dog liver microsome after 3 hrs. The format is ADME, Canis lupus familiaris. To be noted: liver microsomes, read-out: Stability.
Series [3] can be described thus: Stability in human liver microsome after 3 hrs. The format is ADME. Particulars: liver microsomes, read-out: Stability.
A short description of series [4]: Stability in rat liver microsome after 3 hrs. The format is ADME. To be noted: liver microsomes, read-out: Stability.
A further series is filed under the species Macaca fascicularis. In words: Stability in cynomolgus monkey liver microsome after 3 hrs. Particulars: liver microsomes.

On Tryptase, `Cn1c(C(F)(F)c2nc3c(F)cc(F)cc3[nH]2)nc2ccc(C(=O)NC(O)COc3ccc(F)cc3)cc21` (stereo unspecified) had a Ki of 24 nM. For the molecule `Cn1c(C(F)(F)c2nc3c(F)cc(F)cc3[nH]2)nc2ccc(C(=O)NCCOc3ccc(F)cc3)cc21`, the remaining at 3 h in series [1] is less than 10%; in series [2], less than 10%; in series [3], less than 10%; in series [4] it was 56%; in the series listed under Macaca fascicularis, less than 10%. Also, at Tryptase, the Ki came out at 300 nM. Consider `Cn1c(C(F)(F)c2nc3c(F)c(O)c(F)cc3[nH]2)nc2ccc(C(=O)NCCOc3ccc(F)cc3)cc21`, for which the Ki at Tryptase was 1400 nM. The same measure, in the same setting: then `Cn1c(C(F)(F)c2nc3c(F)cc(F)cc3[nH]2)nc2ccc(C(N)=O)cc21`, with 2700 nM; and `Cn1c(C(F)(F)c2nc3c(F)cc(F)cc3[nH]2)nc2ccc(C(=O)NCCO)cc21`, with 7000 nM. Same read-out and setting: then `Cn1c(C(F)(F)c2nc3c(F)cc(F)c(O)c3[nH]2)nc2ccc(C(=O)NCCOc3ccc(F)cc3)cc21`, with 34 nM.

Usually Ki stands for the dissociation constant of the complex between target and ligand, obtained from inhibition or displacement.
